From patent US10287301B2 (Achillion Pharmaceuticals, Inc., priority 2015, dated 2019)
Read-outs that look alike come from different tables or passages of the source.

Molecular target: Human Factor D (Homo sapiens (Human), UniProt P00746)
Test: Human Factor D Assay
Assay type: biochemical
In short: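 Thioesterase activity monitored with Z-L-Lys-SBzl plus Ellman's reagent (DTNB), each 100 μM final, after 5 min room-temperature compound preincubation of 80 nM human serum Factor D in pH 7.5 Tris (50 mM)/1M NaCl.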

[1] = Human Factor D assay of Example 8, Table 2, read-out: IC50
[2] = Table 3, Human Factor D 80 nM, substrate Z-L-Lys-SBzl, read-out: IC50 (Stars)
[3] = Human Factor D, Table 3, read-out: IC50
[4] = Human Factor D 80 nM, substrate Z-L-Lys-SBzl, read-out: IC50

Sequence of Human Factor D (P00746 26-253): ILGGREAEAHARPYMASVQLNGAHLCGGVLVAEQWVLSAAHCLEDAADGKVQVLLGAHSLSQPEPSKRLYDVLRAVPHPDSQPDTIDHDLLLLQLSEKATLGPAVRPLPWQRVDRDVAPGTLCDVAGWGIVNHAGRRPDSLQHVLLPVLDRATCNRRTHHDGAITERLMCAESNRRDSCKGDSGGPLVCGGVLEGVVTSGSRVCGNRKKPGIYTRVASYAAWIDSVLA

## CC(=O)c1nn(CC(=O)N2C[C@H](O)C[C@H]2C(=O)Nc2cccc(Br)n2)c2ccc(-c3cnc(C)nc3)cc12 [Compound 231, (2S,4R)-1-(2-(3-Acetyl-5-(2-methylpyrimidin-5-yl)-1H-indazol-1-yl)acetyl)-N-(6-bromopyridin-2-yl)-4-hydroxypyrrolidine-2-carboxamide]
[1]
  IC50: < 1000 nM

## CC(=O)c1nn(CC(=O)N2C[C@H]3C[C@H]3[C@H]2C(=O)Nc2nc(Br)ccc2C)c2ccc(-c3cnc(C)nc3)cc12 [Compound 488, (1R,2S,5S)-3-(2-(3-Acetyl-5-(2-methylpyrimidin-5-yl)-1H-indazol-1-yl)acetyl)-N-(6-bromo-3-methylpyridin-2-yl)-3-azabicyclo[3.1.0]hexane-2-carboxamide]
[2]
  IC50: < 1000 nM

## COc1cc(Br)nc(NC(=O)[C@@H]2C[C@H]3C[C@H]3N2C(=O)Cn2nc(C(C)=O)c3cc(-c4cnc(C)nc4)ccc32)c1 [Compound 366]
[2]
  IC50: < 1000 nM

## CC(=O)c1nn(CC(=O)N2C[C@H](F)C[C@H]2C(=O)Nc2cccc(Br)n2)c2ccc(-c3cnc(F)nc3)cc12 [Compound 583, (2S,4R)-1-(2-(3-Acetyl-5-(2-fluoropyrimidin-5-yl)-1H-indazol-1-yl)acetyl)-N-(6-bromopyridin-2-yl)-4-fluoropyrrolidine-2-carboxamide]
[3]
  IC50: < 1000 nM

## CC(=O)c1nn(CC(=O)N2CC[C@H]2C(=O)Nc2cccc(Br)n2)c2ccc(-c3cnc(C)nc3)cc12 [Compound 542, (S)-1-(2-(3-Acetyl-5-(2-methylpyrimidin-5-yl)-1H-indazol-1-yl)acetyl)-N-(6-bromopyridin-2-yl)azetidine-2-carboxamide]
[3]
  IC50: < 1000 nM

## CC(=O)c1nn(CC(=O)N2[C@@H]3C[C@@H]3C[C@H]2C(=O)Nc2ccc(F)c(Br)n2)c2ccc(-c3cnc(N)nc3)cc12 [Compound 458, (1R,3S,5R)-2-(2-(3-Acetyl-5-(2-aminopyrimidin-5-yl)-1H-indazol-1-yl)acetyl)-N-(6-bromo-5-fluoropyridin-2-yl)-2-azabicyclo[3.1.0]hexane-3-carboxamide]
[2]
  IC50: < 1000 nM

## Cc1cccc(NC(=O)[C@@H]2[C@H]3CC[C@H](C3)N2C(=O)Cn2cc(C(N)=O)c3cc(-c4ccc5c(c4)CCCC5)ccc32)n1 [Compound 515, 1-(2-((1R,3S,4S)-3-(6-Methylpyridin-2-ylcarbamoyl)-2-azabicyclo[2.2.1]heptan-2-yl)-2-oxoethyl)-5-(5,6,7,8-tetrahydronaphthalen-2-yl)-1H-indole-3-carboxamide]
[2]
  IC50: > 10000 nM

## CC(=O)c1nn(CC(=O)N2C[C@H](F)C[C@H]2C(=O)Nc2cccc(OC(F)(F)F)n2)c2ccc(-c3cnc4cc(C)nn4c3)cc12 [Compound 330, (2S,4R)-1-(2-(3-acetyl-5-(2-methylpyrazolo[1,5-a]pyrimidin-6-yl)-1H-indazol-1-yl)acetyl)-4-fluoro-N-(6-(trifluoromethoxy)pyridin-2-yl)pyrrolidine-2-carboxamide]
[1]
  IC50: < 1000 nM

## CC(=O)c1nn(CC(=O)N2C[C@H](F)C[C@H]2C(=O)Nc2nc(Br)ccc2C)c2ccc(-c3cnc(C)cn3)cc12 [Compound 467, (2S,4R)-1-(2-(3-Acetyl-5-(5-methylpyrazin-2-yl)-1H-indazol-1-yl)acetyl)-N-(6-bromo-3-methylpyridin-2-yl)-4-fluoropyrrolidine-2-carboxamide]
[2]
  IC50: < 1000 nM

## CC(=O)c1nn(CC(=O)N2C[C@H](F)C[C@H]2C(=O)Nc2cccc(C#N)n2)c2ccc(-c3cnc4cc(C)nn4c3)cc12 [Compound 265, (2S,4R)-1-(2-(3-acetyl-5-(2-methylpyrazolo[1,5-a]pyrimidin-6-yl)-1H-indazol-1-yl)acetyl)-N-(6-cyanopyridin-2-yl)-4-fluoropyrrolidine-2-carboxamide]
[1]
  IC50: < 1000 nM

## CNc1ncc(-c2ccc3c(c2)c(C(C)=O)cn3CC(=O)N2C[C@H](F)C[C@H]2C(=O)Nc2cccc(-c3ccccc3Cl)c2F)cn1 [Compound 188, (2S,4R)-1-(2-(3-acetyl-5-(2-(methylamino)pyrimidin-5-yl)-1H-indol-1-yl)acetyl)-N-(2′-chloro-2-fluorobiphenyl-3-yl)-4-fluoropyrrolidine-2-carboxamide]
[4]
  IC50: < 1000 nM

## CC(=O)c1nn(CC(=O)N2CC[C@H]2C(=O)Nc2cccc(C)n2)c2ccc(-c3cnc4ncccn34)cc12 [Compound 709, (S)-1-(2-(3-Acetyl-5-(imidazo[1,2-a]pyrimidin-3-yl)-1H-indazol-1-yl)acetyl)-N-(6-methylpyridin-2-yl)azetidine-2-carboxamide]
[3]
  IC50: < 1000 nM

## CC(=O)c1cn(CC(=O)N2C[C@H](F)C[C@H]2C(=O)Nc2cccc(Br)n2)c2ccc(-c3cnc(F)nc3)cc12 [Compound 83, (2S,4R)-1-(2-(3-acetyl-5-(2-fluoropyrimidin-5-yl)-1H-indol-1-yl)acetyl)-N-(6-bromopyridin-2-yl)-4-fluoropyrrolidine-2-carboxamide]
[4]
  IC50: < 1000 nM

## COc1cc(Br)nc(NC(=O)[C@@H]2C[C@@H](F)CN2C(=O)Cn2nc(C(C)=O)c3cc(-c4cnc(OC)nc4)ccc32)c1 [Compound 431, (2S,4R)-1-(2-(3-Acetyl-5-(2-methoxypyrimidin-5-yl)-1H-indazol-1-yl)acetyl)-N-(6-bromo-4-methoxypyridin-2-yl)-4-fluoropyrrolidine-2-carboxamide]
[2]
  IC50: < 1000 nM

## CC(=O)c1cn(CC(=O)N2C[C@H](F)C[C@H]2C(=O)Nc2cc(O)ccn2)c2ccc(-c3ccnnc3)cc12 [Compound 177, (2S,4R)-1-(2-(3-acetyl-5-(pyridazin-4-yl)-1H-indol-1-yl)acetyl)-4-fluoro-N-(4-hydroxypyridin-2-yl)pyrrolidine-2-carboxamide]
  IC50: 1000 to 10000 nM

## NC(=O)c1nn(CC(=O)N2C[C@H](F)C[C@H]2C(=O)NCc2cc(F)cc(Cl)c2)c2ccc(-c3ccnnc3)cc12 [Compound 62, 1-(2-((2S,4R)-2-(3-chloro-5-fluorobenzyl-carbamoyl)-4-fluoropyrrolidin-1-yl)-2-oxoethyl)-5-(pyridazin-4-yl)-1H-indazole-3-carboxamide]
[4]
  IC50: < 1000 nM

## CC(=O)c1cn(CC(=O)N2C[C@H](F)C[C@H]2C(=O)Nc2nc(-c3cccc(Cl)c3)ns2)c2ccc(-c3ccnnc3)cc12 [Compound 147, (2S,4R)-1-(2-(3-acetyl-5-(pyridazin-4-yl)-1H-indol-1-yl)acetyl)-N-(3-(3-chlorophenyl)-1,2,4-thiadiazol-5-yl)-4-fluoropyrrolidine-2-carboxamide]
[4]
  IC50: > 10000 nM

## Cc1ncc(-c2ccc3c(c2)c(C(N)=O)nn3CC(=O)N2[C@@H]3C[C@@H]3C[C@H]2C(=O)Nc2cccc(Br)n2)cn1 [Compound 202, 1-(2-((1R,3S,5R)-3-(6-bromopyridin-2-ylcarbamoyl)-2-azabicyclo[3.1.0]hexan-2-yl)-2-oxoethyl)-5-(2-methylpyrimidin-5-yl)-1H-indazole-3-carboxamide]
[1]
  IC50: < 1000 nM

## CC(=O)c1nn(CC(=O)N2C[C@H](F)C[C@H]2C(=O)Nc2cc(Cl)sc2C)c2ccc(-c3cnc(C)nc3)cc12 [Compound 229, (2S,4R)-1-(2-(3-acetyl-5-(2-methylpyrimidin-5-yl)-1H-indazol-1-yl)acetyl)-N-(5-chloro-2-methylthiophen-3-yl)-4-fluoropyrrolidine-2-carboxamide]
[1]
  IC50: < 1000 nM

## NC(=O)c1nn(CC(=O)N2C[C@H](F)C[C@H]2C(=O)NCc2cccc(Cl)c2F)c2cnc(-c3cncnc3)cc12 [Compound 18, 1-(2-((2S,4R)-2-(3-chloro-2-fluorobenzyl-carbamoyl)-4-fluoropyrrolidin-1-yl)-2-oxoethyl)-5-(pyrimidin-5-yl)-1H-pyrazolo[3,4-c]pyridine-3-carboxamide]
[4]
  IC50: < 1000 nM

## CC(=O)c1nn(CC(=O)N2C[C@H](F)C[C@H]2C(=O)Nc2ccn(-c3ccc(F)cn3)n2)c2ccc(-c3cnc(C)nc3)cc12 [Compound 479, (2S,4R)-1-(2-(3-acetyl-5-(2-Methylpyrimidin-5-yl)-1H-indazol-1-yl)acetyl)-4-fluoro-N-(1-(5-fluoropyridin-2-yl)-1H-pyrazol-3-yl)pyrrolidine-2-carboxamide]
[2]
  IC50: < 1000 nM

## CC(=O)c1nn(CC(=O)N2[C@@H]3C[C@@H]3C[C@H]2C(=O)Nc2cncc(Br)n2)c2ccc(-c3cnc4cc(C5CC5)nn4c3)cc12 [Compound 669, (1R,3S,5R)-2-(2-(3-Acetyl-5-(2-cyclopropylpyrazolo[1,5-a]pyrimidin-6-yl)-1H-indazol-1-yl)acetyl)-N-(6-bromopyrazin-2-yl)-2-azabicyclo[3.1.0]hexane-3-carboxamide]
[3]
  IC50: < 1000 nM

## CC(=O)c1cn(CC(=O)N2C[C@H](F)C[C@H]2C(=O)NCc2ccccc2)c2ccc(-c3cnc4cc(C)nn4c3)cc12 [Compound 685, (2S,4R)-1-(2-(3-Acetyl-5-(2-methylpyrazolo[1,5-a]pyrimidin-6-yl)-1H-indol-1-yl)acetyl)-N-benzyl-4-fluoropyrrolidine-2-carboxamide]
[3]
  IC50: < 1000 nM

## CC(=O)c1nn(CC(=O)N2C[C@H](F)C[C@H]2C(=O)Nc2ccn(CC(F)(F)F)n2)c2ccc(-c3cnc(N)nc3)cc12 [Compound 558, (2S,4R)-1-(2-(3-Acetyl-5-(2-aminopyrimidin-5-yl)-1H-indazol-1-yl)acetyl)-4-fluoro-N-(1-(S2,2,2-trifluoroethyl)-1H-pyrazol-3-yl)pyrrolidine-2-carboxamide]
[3]
  IC50: < 1000 nM

## CC(=O)c1nn(CC(=O)N2C[C@H](F)C[C@H]2C(=O)Nc2cccc(Br)n2)c2ccc(-c3cnc4c(c3)ncn4C)cc12 [Compound 241, (2S,4R)-1-(2-(3-acetyl-5-(3-methyl-3H-imidazo[4,5-b]pyridin-6-yl)-1H-indazol-1-yl)acetyl)-N-(6-bromopyridin-2-yl)-4-fluoropyrrolidine-2-carboxamide]
[1]
  IC50: < 1000 nM

## CC(=O)c1nn(CC(=O)N2CC[C@H]2C(=O)Nc2cccc(C)n2)c2ccc(-c3cccnc3)cc12 [Compound 548, (S)-1-(2-(3-Acetyl-5-(pyridin-3-yl)-1H-indazol-1-yl)acetyl)-N-(6-methylpyridin-2-yl)azetidine-2-carboxamide]
[3]
  IC50: > 10000 nM
